± gives the uncertainty stated by the source. Each block holds one molecule with its values, some of them ahead of it.
Assay: xn = mol fraction of the nth substance listed

SMILES: CCCC[n+]1cccc(C)c1.O=S(=O)([N-]S(=O)(=O)C(F)(F)F)C(F)(F)F + CO
electrical conductivity (298.15 K, 101.3 kPa, x2 = 0.1004): 0.338 ± 0.007 S/m
electrical conductivity (298.15 K, 101.3 kPa, x2 = 0.7793): 1.68 ± 0.034 S/m
electrical conductivity (298.15 K, 101.3 kPa, x2 = 0.9417): 2.04 ± 0.04 S/m
electrical conductivity (298.15 K, 101.3 kPa, x2 = 0.9589): 1.83 ± 0.037 S/m

viscosity (293.15 K, 100 kPa, x1 = 0.3321): 27.12 ± 0.71 mPa·s
viscosity (293.15 K, 100 kPa, x1 = 0.4272): 67.1 ± 1.8 mPa·s
viscosity (293.15 K, 100 kPa, x1 = 0.9362): 625 ± 55 mPa·s
viscosity (298.15 K, 100 kPa, x1 = 1): 521 ± 43 mPa·s
viscosity (303.15 K, 100 kPa, x1 = 0.0765): 2.239 ± 0.064 mPa·s
viscosity (303.15 K, 100 kPa, x1 = 0.8837): 287 ± 18 mPa·s
viscosity (308.15 K, 100 kPa, x1 = 0.6717): 99.2 ± 3.4 mPa·s
viscosity (313.15 K, 100 kPa, x1 = 0.0474): 1.983 ± 0.051 mPa·s
viscosity (313.15 K, 100 kPa, x1 = 1): 217 ± 12 mPa·s
viscosity (318.15 K, 100 kPa, x1 = 0.2582): 8.21 ± 0.19 mPa·s
viscosity (318.15 K, 100 kPa, x1 = 0.3321): 12.45 ± 0.3 mPa·s
viscosity (323.15 K, 100 kPa, x1 = 0.1508): 3.946 ± 0.088 mPa·s
viscosity (323.15 K, 100 kPa, x1 = 0.8837): 112.5 ± 4.4 mPa·s
SMILES: CCCC[P+](C)(CCCC)CCCC.COS(=O)(=O)[O-] + CN(C)C=O

SMILES: CCCC[n+]1ccn(C)c1.O=S(=O)([N-]S(=O)(=O)C(F)(F)F)C(F)(F)F + O
viscosity (298 K, 101 kPa, x2 = 0): 50.4 ± 1.9 mPa·s
electrical conductivity (298 K, 101 kPa, x2 = 0.0227): 0.427 ± 0.064 S/m
electrical conductivity (298 K, 101 kPa, x2 = 0.0272): 0.442 ± 0.064 S/m
electrical conductivity (298 K, 101 kPa, x2 = 0.0915): 0.472 ± 0.064 S/m
electrical conductivity (298 K, 101 kPa, x2 = 0.1024): 0.498 ± 0.064 S/m
viscosity (333.15 K, 100 kPa, x2 = 0.257): 10.68 ± 0.092 mPa·s
viscosity (343.15 K, 100 kPa, x2 = 0.257): 8.479 ± 0.073 mPa·s
viscosity (353.15 K, 100 kPa, x2 = 0.257): 6.903 ± 0.06 mPa·s

SMILES: CCCC[n+]1ccn(C)c1.F[P-](F)(F)(F)(F)F + CCC(C)=O
viscosity (298.15 K, 101.3 kPa, x2 = 0.3016): 43.3 ± 1.4 mPa·s
viscosity (298.15 K, 101.3 kPa, x2 = 0.4024): 23.55 ± 0.66 mPa·s
viscosity (298.15 K, 101.3 kPa, x2 = 0.4485): 18.18 ± 0.49 mPa·s
viscosity (298.15 K, 101.3 kPa, x2 = 0.6517): 5.15 ± 0.13 mPa·s

SMILES: CCCC[n+]1ccn(C)c1.O=S(=O)([N-]S(=O)(=O)C(F)(F)F)C(F)(F)F + CC1CC(=O)O1
electrical conductivity (293.15 K, 100 kPa, frequency 0.01 MHz, x1 = 1): 0.337 ± 0.013 S/m
electrical conductivity (298.15 K, 100 kPa, frequency 0.01 MHz, x1 = 1): 0.4 ± 0.016 S/m
electrical conductivity (303.15 K, 100 kPa, frequency 0.01 MHz, x1 = 1): 0.472 ± 0.019 S/m
electrical conductivity (308.15 K, 100 kPa, frequency 0.01 MHz, x1 = 1): 0.552 ± 0.022 S/m
electrical conductivity (313.15 K, 100 kPa, frequency 0.01 MHz, x1 = 1): 0.64 ± 0.026 S/m
electrical conductivity (318.15 K, 100 kPa, frequency 0.01 MHz, x1 = 1): 0.733 ± 0.029 S/m
electrical conductivity (323.15 K, 100 kPa, frequency 0.01 MHz, x1 = 1): 0.835 ± 0.033 S/m

SMILES: CC#N + CC[NH3+].O=[N+]([O-])[O-]
viscosity (308.19 K, 100 kPa, x2 = 0): 0.302 ± 0.019 mPa·s

SMILES: CCCC[n+]1ccn(C)c1.F[P-](F)(F)(F)(F)F + CCCC[n+]1ccn(C)c1.O=S(=O)([N-]S(=O)(=O)C(F)(F)F)C(F)(F)F
viscosity (313.15 K, 100 kPa, x1 = 0.5): 49.8 ± 1 mPa·s
